{"source": "patent US9428564B2", "about": "“Muscle function enhancing peptide” (Universitatsklinikum Heidelberg, priority 2009, dated 2016)", "key": {"[1]": {"test_system": "intact rat ventricular cardiomyocytes", "type": "cell-based", "conditions": "not told", "description": "Equivalent bioactivity of native human S100A1 protein and the 20-mer C-terminal peptide was shown by the inventors in chemically permeabilized cardiac and skeletal muscle cell preparations enabling intracellular access and regulation of RyR2 and RyR1 function. FIG. 4 depicts a similar intracellular binding pattern for rhodamine-labeled recombinant human S100A1 protein (10415 Mw) (FIG. 4A/B) and the 20-mer FITC-labeled synthetic S100A1 C-terminal peptide (2258 Mw) (FIG. 4C/D).\nS100A1ct6/11 refers to the peptide D-K-D-D-P-P-Y-V-V-L-V-A-A-L-T-V-A (SEQ ID NO: 372), wherein the sequence D-K-D-D-P-P (SEQ ID NO: 354) is a hydrophilic motif and the sequence Y-V-V-L-V-A-A-L-T-V-A (SEQ ID NO: 390) are amino acids 75 to 85 of the human S100A1 protein.\nFITC-labeled S100A1ct6/11 was incubated with intact rat ventricular cardiomyocytes for 15 minutes before the cells were monitored using confocal laser scanning microscopy. Endogenous S100A1 protein was stained using a conventional immunofluorescence protocol."}, "[2]": {"test_system": "isolated rat ventricular cardiomyocytes", "type": "cell-based", "conditions": "for effect on calcium transient amplitudes: field-stimulated (1 Hz) isolated rat ventricular cardiomyocytes, FIG. 25; for inotropic effect (calcium transients): basal conditions, intact field-stimulated cardiomyocytes; for inotropic effect (calcium transients) under βAR stimulation: β-AR stimulated, 10^−9 M Isoproterenol"}, "[3]": {"test_system": "permeabilized cardiomyocytes", "test": "Ca2+-spark frequency in β-escin permeabilized cardiomyocytes", "type": "cell-based, rabbit", "description": "Adult ventricular rabbit cardiomyocytes were isolated from four different animals as previously described (Loughrey C. M. et al., 2004, J. Physiol. 556:919-934) and permeabilized using β-escin (0.1 mg/ml). The permeabilized cells were incubated for 1 minute with rhodamine-labeled human S100A1 protein (0.1 μM) or FITC-labeled S100A1 C-terminal 20-mer peptide (0.1 μM) fused to a hydrophilic linker (amino acids 75 to 94 of human S100A1 fused to D-K-D-D-P-P (SEQ ID NO: 354)). Cells were monitored using a Bio-Rad 2000 laser scanning confocal microscope (LSCM). A striated staining pattern can be observed that resembles the ryanodine staining pattern (FIG. 4).\nIsolated cardiomyocytes were perfused with a mock intracellular solution and permeabilized using β-escin (0.1 mg/ml). Fluo-3 free acid (10 μM) present in the perfusing solution was excited at 488 nm (Kr-laser) and measured at >515 nm applying epifluorescence optics of an inverted microscope with a ×60-1.2 NA water-immersion objective lens. Fluorescence was acquired in line scan mode at 2 ms line^−1; pixel dimension was 0.3 μm (512 pixels scan^−1; zoom=1.4). The scanning laser line orientated parallel with the long axis and placed approximately equidistant between the outer edge of the cell and the nucleus/nuclei, to ensure the nuclear area was not included in the scan line. To enable this trace to be converted to free calcium concentration ([Ca^2+]) a series of calibration solutions were used at the end of each Ca^2+-spark measurement period incorporating 10 mM EGTA. In all experiments concerning Ca^2+-sparks, the [Ca^2+] in the test solution was 145-160 nM. Ca^2+-sparks recorded in Fluo-3-containing solutions were quantified using an automated detection and measurement algorithm. All Ca^2+-spark measurements were made within 7-8 min of cell permeabilization. This time was standardized to minimize loss of soluble proteins. S100A1 protein or S100A1-ct peptide was applied in mock solution using a gravity-fed perfusion system. […]"}, "[4]": {"test_system": "permeabilized EDL murine skeletal muscle fibers", "test": "Isometric twitch force in permeabilized skeletal muscle fibers", "type": "cell-based, mouse", "description": "Muscle Fiber Preparation and Experimental Solutions. All of the animals were handled according to the guidelines of the animal care committee of the University of Heidelberg. Male BALB/c mice (3-6-months-old) were sacrificed by an overdose of carbon dioxide, and muscle fiber preparation was carried out as previously described (Fink R. H. and Stephenson D. G., 1987, Pflugers Arch. Eur. J. Physiol. 409:374-380; Makabe M. et al., 1996, Pflugers Arch. Eur. J. Physiol. 432: 717-726). Either EDL (M. ext. dig. longum) or Soleus was isolated, and a small fiber bundle containing two to four single fibers (between 80 and 150 μm in diameter and 3-4-mm-long) was dissected in paraffin oil. […] The free ion concentrations were calculated with the computer program REACT (version 2.0) from G. L. Smith (Glasgow, Scotland). […]\nMuscle fibers were skinned for 5 min in skinning solution while the sarcomere length was adjusted to 2.6±0.1 μm using the diffraction pattern of a helium-neon laser. […] Maximum force was measured in the high activating solution at pCa 4.28 and 5 mM caffeine. […] Several control transients were recorded before the fiber was exposed to the S100A1 protein or the S100A1 peptide mixture (N/H/C) or the C-terminal 20-mer alone, and the experiment was repeated as outlined above. […] The correlation coefficients were calculated to determine the accuracy of the fit. […]"}, "[5]": {"test_system": "adult intact cardiomyocytes", "test": "Calcium homeostasis in adult intact cardiomyocytes", "type": "cell-based"}, "skeletal muscle fibers": {"test_system": "skeletal muscle fibers", "test": "Calcium homeostasis in intact skeletal muscle fibers", "type": "cell-based"}}, "note": "“Also recorded” adds a separate entry of the source. Where two headings read alike, the source gives them in different places. Where a SMILES comes first, the peptide text is derived from it. Where no end group is shown, it is not given here."}
{"molecule": "CC(C)C[C@H](NC(=O)[C@H](C)NC(=O)[C@H](C)NC(=O)[C@@H](NC(=O)[C@H](CC(C)C)NC(=O)[C@@H](NC(=O)[C@@H](NC(=O)[C@@H](N)Cc1ccc(O)cc1)C(C)C)C(C)C)C(C)C)C(=O)N[C@H](C(=O)N[C@H](C(=O)N[C@@H](C)C(=O)N[C@@H](CS)C(=O)N[C@@H](CC(N)=O)C(=O)N[C@@H](CC(N)=O)C(=O)N[C@@H](Cc1ccccc1)C(=O)N[C@@H](Cc1ccccc1)C(=O)N[C@@H](Cc1c[nH]c2ccccc12)C(=O)N[C@@H](CCC(=O)O)C(=O)N[C@@H](CC(N)=O)C(=O)N[C@@H](CO)C(=O)O)C(C)C)[C@@H](C)O", "note": "[20-mer S100A1 C-terminal peptide, YVVLVAALTVACNNFFWENS, reference compound] (H-YVVLVAALTVACNNFFWENS-OH; N-terminus and C-terminus assumed)", "values": [{"measurement": "ability to permeate the cell membrane of intact cardiomyocytes", "setting": "[1]", "value": "cell-impermeable"}]}
{"molecule": "CC(C)C[C@H](NC(=O)[C@H](C)NC(=O)[C@H](C)NC(=O)[C@@H](NC(=O)[C@H](CC(C)C)NC(=O)[C@@H](NC(=O)[C@@H](NC(=O)[C@H](Cc1ccc(O)cc1)NC(=O)[C@@H]1CCCN1C(=O)[C@@H]1CCCN1C(=O)[C@H](CC(=O)O)NC(=O)[C@H](CC(=O)O)NC(=O)[C@H](CCCCN)NC(=O)[C@@H](N)CC(=O)O)C(C)C)C(C)C)C(C)C)C(=O)N[C@H](C(=O)N[C@H](C(=O)N[C@@H](C)C(=O)O)C(C)C)[C@@H](C)O", "note": "[S100A1ct6/11, D-K-D-D-P-P-Y-V-V-L-V-A-A-L-T-V-A] (H-DKDDPPYVVLVAALTVA-OH; N-terminus and C-terminus assumed)", "values": [{"measurement": "ability to permeate the cell membrane of intact cardiomyocytes", "setting": "[1]", "value": "cell permeable"}, {"measurement": "EC50", "setting": "[2]", "value": "87 ± 6", "unit": "nM"}]}
{"molecule": "D-K-D-D-P-P (DKDDPP; hydrophilic motif) [linker, reference compound]", "values": [{"measurement": "effect on calcium transient amplitudes", "setting": "[2]", "value": "do not exhibit the inotropic effect"}]}
{"molecule": "D-K-D-D-P-P-V-V-L-V-A-A-L-T-V-A (DKDDPPVVLVAALTVA; amino acids 76 to 85 of human S100A1 fused to a hydrophilic motif) [N-76-85-C, amino acids 76 to 85 of human S100A1 fused to a hydrophilic linker (D-K-D-D-P-P)]", "values": [{"measurement": "effect on calcium transient amplitudes", "setting": "[2]; listed as peptide consisting of amino acids 76 to 85 of human S100A1 fused to a hydrophili", "value": "exerts the same inotropic function as the S100A1ct6/11 peptide"}]}
{"molecule": "DKDDPP-FMAFVAMVTTA (DKDDPPFMAFVAMVTTA; amino acids 75 to 85 of S100B fused to a hydrophilic motif) [amino acids 75-85 of S100B fused to a hydrophilic motif, reference compound]", "values": [{"measurement": "inotropic effect (calcium transients)", "setting": "[2]", "value": "fail to reproduce S100A1ct6/11 inotropic actions"}, {"measurement": "inotropic effect (calcium transients) under βAR stimulation", "setting": "[2]", "value": "neither S100A4ct nor S100Bct mimic S100A1ct6/11 inotropic effects"}]}
{"molecule": "DKDDPP-YCVFLSCIAMM (DKDDPPYCVFLSCIAMM; amino acids 75 to 85 of S100A4 fused to a hydrophilic motif) [amino acids 75-85 of S100A4 fused to a hydrophilic motif, reference compound]", "values": [{"measurement": "inotropic effect (calcium transients)", "setting": "[2]", "value": "fail to reproduce S100A1ct6/11 inotropic actions"}, {"measurement": "inotropic effect (calcium transients) under βAR stimulation", "setting": "[2]", "value": "neither S100A4ct nor S100Bct mimic S100A1ct6/11 inotropic effects"}]}
{"molecule": "N-77-85-C: amino acids 77 to 85 of human S100A1 protein set forth in SEQ ID NO: 1 (VLVAALTVA; listed as Homo sapiens)", "values": [{"measurement": "effect on calcium transient amplitudes", "setting": "[2]", "value": "abolishes the inotropic effect"}]}
{"molecule": "N-78-85-C: amino acids 78 to 85 of human S100A1 protein set forth in SEQ ID NO: 1 (LVAALTVA; listed as Homo sapiens)", "values": [{"measurement": "effect on calcium transient amplitudes", "setting": "[2]", "value": "abolishes the inotropic effect"}]}
{"molecule": "N-79-85-C: amino acids 79 to 85 of human S100A1 protein set forth in SEQ ID NO: 1 (VAALTVA; listed as Homo sapiens)", "values": [{"measurement": "effect on calcium transient amplitudes", "setting": "[2]", "value": "abolishes the inotropic effect"}]}
{"molecule": "S100A1 C-terminal 20-mer peptide fused to a hydrophilic linker: amino acids 75 to 94 of human S100A1 fused to D-K-D-D-P-P (SEQ ID NO: 354) (YVVLVAALTVACNNFFWENS; also: fused to hydrophilic linker D-K-D-D-P-P, end not given here; UniProt P23297 75-94, looked up, fragment) [reference compound]", "values": [{"measurement": "diastolic calcium spark frequency", "setting": "[3]", "value": "decrease calcium spark frequency"}]}
{"molecule": "S100A1 protein: native human S100A1 protein, 94 amino acids, SEQ ID NO: 1 (protein, listed as Homo sapiens) MGSELETAMETLINVFHAHSGKEGDKYKLSKKELKELLQTELSGFLDAQKDVDAVDKVMKELDENGDGEVDFQEYVVLVAALTVACNNFFWENS", "values": [{"measurement": "RyR2 activity", "setting": "[3]", "value": "decreases"}, {"measurement": "diastolic calcium spark frequency", "setting": "[3]", "value": "decrease calcium spark frequency; also recorded: decreases"}, {"measurement": "isometric twitch force", "setting": "[4]", "value": "enhances; also recorded: equivalent biological potency to enhance isometric force"}, {"measurement": "isometric twitch force", "setting": "[4]; listed as full-length S100A1 protein", "value": "has a potency to enhance isometric twitch force"}, {"measurement": "calcium homeostasis", "setting": "[5]", "value": "does not alter"}, {"measurement": "calcium homeostasis", "setting": "skeletal muscle fibers", "value": "does not alter"}]}
